# Assay results published in US10351575B2, “Bicyclic urea, thiourea, guanidine and cyanoguanidine compounds useful for the treatment of pain” (Array BioPharma Inc., priority 2012, dated 2019).
# Assays:
# [1] = target: His-tagged recombinant human TrkA (Homo sapiens (Human), UniProt P04629); assay: TrkA LanthaScreen Eu Kinase Binding Assay; settings: averaged IC50; TR-FRET binding, 60 min, 22° C.; read-out: TrkA Enzyme IC50
# Outline: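 Three-fold compound dilutions (2% DMSO final) were incubated 60 min at 22° C. with 5 nM His-TrkA cytoplasmic domain, tracer 236 (4 nM), biotinylated anti-His (2 nM) and europium streptavidin (2 nM) in MOPS pH 7.5 buffer. Emission ratio 665/615 gave percent of control; four-parameter fit yielded IC50.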
# [2] = target: AKT2 (Homo sapiens (Human), UniProt P31751); assay: KinaseProfiler off-target kinase profiling; format: biochemical; settings: 10 μM, ATP near Km
# Protocol: (§1) Representative compounds (Examples 12, 32, 26 and 2) of the invention were tested for off-target kinase activity at a concentration of 10 μM by Millipore, Inc. in their KinaseProfiler™ service against all the kinases available in their full kinase panel. Compounds were run in duplicate at a concentration of ATP near the Km for each individual kinase according to Millipore's specifications. The results are shown in Table B. Data are reported as percent of control (POC) and are the average of the two replicates.
# [3] = target: ARK5 (Homo sapiens (Human), UniProt O60285); assay: KinaseProfiler off-target kinase profiling; format: biochemical; settings: 10 μM, ATP near Km
# Protocol: as §1
# [4] = target: Abl2 (Homo sapiens (Human), UniProt P42684); assay: KinaseProfiler off-target kinase profiling; format: biochemical; settings: 10 μM, ATP near Km
# Protocol: as §1
# [5] = target: BLK_m (Mus musculus (Mouse), UniProt P16277); assay: KinaseProfiler off-target kinase profiling; format: biochemical; settings: 10 μM, ATP near Km
# Protocol: as §1
# [6] = target: Bmx (Homo sapiens (Human), UniProt P51813); assay: KinaseProfiler off-target kinase profiling; format: biochemical; settings: 10 μM, ATP near Km
# Protocol: as §1
# [7] = target: BrSK1 (Homo sapiens (Human), UniProt Q8TDC3); assay: KinaseProfiler off-target kinase profiling; format: biochemical; settings: 10 μM, ATP near Km
# Protocol: as §1
# [8] = target: BrSK2 (Homo sapiens (Human), UniProt Q8IWQ3); assay: KinaseProfiler off-target kinase profiling; format: biochemical; settings: 10 μM, ATP near Km
# Protocol: as §1
# [9] = target: CDK7/cyclinH/MAT1 (Homo sapiens (Human), UniProt P50613); assay: KinaseProfiler off-target kinase profiling; format: biochemical; settings: 10 μM, ATP near Km
# Protocol: as §1
# [10] = target: CHK2 (Homo sapiens (Human), UniProt O96017); assay: KinaseProfiler off-target kinase profiling; format: biochemical; settings: 10 μM, ATP near Km
# Protocol: as §1
# [11] = system: CK1_y; assay: KinaseProfiler off-target kinase profiling; format: biochemical; settings: 10 μM, ATP near Km
# Protocol: as §1
# [12] = target: CK1delta (Homo sapiens (Human), UniProt P48730); assay: KinaseProfiler off-target kinase profiling; format: biochemical; settings: 10 μM, ATP near Km
# Protocol: as §1
# [13] = target: CK2 (Homo sapiens (Human), UniProt P68400); assay: KinaseProfiler off-target kinase profiling; format: biochemical; settings: 10 μM, ATP near Km
# Protocol: as §1
# [14] = target: CLK2 (Homo sapiens (Human), UniProt P49760); assay: KinaseProfiler off-target kinase profiling; format: biochemical; settings: 10 μM, ATP near Km
# Protocol: as §1
# [15] = target: EphA7 (Homo sapiens (Human), UniProt Q15375); assay: KinaseProfiler off-target kinase profiling; format: biochemical; settings: 10 μM, ATP near Km
# Protocol: as §1
# [16] = target: Flt1 (Homo sapiens (Human), UniProt P17948); assay: KinaseProfiler off-target kinase profiling; format: biochemical; settings: 10 μM, ATP near Km
# Protocol: as §1
# [17] = target: GRK7 (Homo sapiens (Human), UniProt Q8WTQ7); assay: KinaseProfiler off-target kinase profiling; format: biochemical; settings: 10 μM, ATP near Km
# Protocol: as §1
# [18] = target: IKKbeta (Homo sapiens (Human), UniProt O14920); assay: KinaseProfiler off-target kinase profiling; format: biochemical; settings: 10 μM, ATP near Km
# Protocol: as §1
# [19] = target: JAK3 (Homo sapiens (Human), UniProt P52333); assay: KinaseProfiler off-target kinase profiling; format: biochemical; settings: 10 μM, ATP near Km
# Protocol: as §1
# [20] = target: JNK2alpha2 (Homo sapiens (Human), UniProt P45984); assay: KinaseProfiler off-target kinase profiling; format: biochemical; settings: 10 μM, ATP near Km
# Protocol: as §1
# [21] = target: KDR (Homo sapiens (Human), UniProt P35968); assay: KinaseProfiler off-target kinase profiling; format: biochemical; settings: 10 μM, ATP near Km
# Protocol: as §1
# [22] = target: Lyn (Homo sapiens (Human), UniProt P07948); assay: KinaseProfiler off-target kinase profiling; format: biochemical; settings: 10 μM, ATP near Km
# Protocol: as §1
# [23] = target: MAP3K5 (Homo sapiens (Human), UniProt Q99683); assay: KinaseProfiler off-target kinase profiling; format: biochemical; settings: 10 μM, ATP near Km
# Protocol: as §1
# [24] = target: MAPKAP-K2 (Homo sapiens (Human), UniProt P49137); assay: KinaseProfiler off-target kinase profiling; format: biochemical; settings: 10 μM, ATP near Km
# Protocol: as §1
# [25] = target: MARK1 (Homo sapiens (Human), UniProt Q9P0L2); assay: KinaseProfiler off-target kinase profiling; format: biochemical; settings: 10 μM, ATP near Km
# Protocol: as §1
# [26] = target: MINK (Homo sapiens (Human), UniProt Q8N4C8); assay: KinaseProfiler off-target kinase profiling; format: biochemical; settings: 10 μM, ATP near Km
# Protocol: as §1
# [27] = target: MKK6 (Homo sapiens (Human), UniProt P52564); assay: KinaseProfiler off-target kinase profiling; format: biochemical; settings: 10 μM, ATP near Km
# Protocol: as §1
# [28] = target: MKNK2 (Homo sapiens (Human), UniProt Q9HBH9); assay: KinaseProfiler off-target kinase profiling; format: biochemical; settings: 10 μM, ATP near Km
# Protocol: as §1
# [29] = target: PDK1 (Homo sapiens (Human), UniProt O15530); assay: KinaseProfiler off-target kinase profiling; format: biochemical; settings: 10 μM, ATP near Km
# Protocol: as §1
# [30] = target: PKCtheta (Homo sapiens (Human), UniProt Q04759); assay: KinaseProfiler off-target kinase profiling; format: biochemical; settings: 10 μM, ATP near Km
# Protocol: as §1
# [31] = target: PRKG1beta (Homo sapiens (Human), UniProt Q13976); assay: KinaseProfiler off-target kinase profiling; format: biochemical; settings: 10 μM, ATP near Km
# Protocol: as §1
# [32] = target: SIK (Homo sapiens (Human), UniProt P57059); assay: KinaseProfiler off-target kinase profiling; format: biochemical; settings: 10 μM, ATP near Km
# Protocol: as §1
# [33] = target: Tie2 (Homo sapiens (Human), UniProt Q02763); assay: KinaseProfiler off-target kinase profiling; format: biochemical; settings: 10 μM, ATP near Km
# Protocol: as §1
# CDK7/cyclinH/MAT1, sequence (P50613 whole entry): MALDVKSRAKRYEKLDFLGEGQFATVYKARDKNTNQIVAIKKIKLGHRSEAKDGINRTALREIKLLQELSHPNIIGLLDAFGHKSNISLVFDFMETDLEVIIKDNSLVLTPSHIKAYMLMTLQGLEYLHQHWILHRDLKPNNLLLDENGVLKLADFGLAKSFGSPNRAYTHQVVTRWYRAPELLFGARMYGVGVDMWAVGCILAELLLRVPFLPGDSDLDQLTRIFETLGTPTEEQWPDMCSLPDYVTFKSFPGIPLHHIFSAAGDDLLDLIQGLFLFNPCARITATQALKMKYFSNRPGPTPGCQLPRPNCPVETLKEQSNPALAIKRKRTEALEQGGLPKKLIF
# CDK7/cyclinH/MAT1, sequence (P51946 whole entry partner): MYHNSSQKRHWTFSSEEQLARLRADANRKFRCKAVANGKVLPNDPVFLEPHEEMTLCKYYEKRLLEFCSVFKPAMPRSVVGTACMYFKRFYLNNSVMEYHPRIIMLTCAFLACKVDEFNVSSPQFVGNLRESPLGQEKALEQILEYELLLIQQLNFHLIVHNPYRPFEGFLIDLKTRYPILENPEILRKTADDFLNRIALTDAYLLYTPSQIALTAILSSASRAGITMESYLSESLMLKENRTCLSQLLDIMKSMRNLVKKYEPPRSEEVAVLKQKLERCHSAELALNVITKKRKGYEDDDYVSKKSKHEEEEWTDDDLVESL
# CDK7/cyclinH/MAT1, sequence (P51948 whole entry partner): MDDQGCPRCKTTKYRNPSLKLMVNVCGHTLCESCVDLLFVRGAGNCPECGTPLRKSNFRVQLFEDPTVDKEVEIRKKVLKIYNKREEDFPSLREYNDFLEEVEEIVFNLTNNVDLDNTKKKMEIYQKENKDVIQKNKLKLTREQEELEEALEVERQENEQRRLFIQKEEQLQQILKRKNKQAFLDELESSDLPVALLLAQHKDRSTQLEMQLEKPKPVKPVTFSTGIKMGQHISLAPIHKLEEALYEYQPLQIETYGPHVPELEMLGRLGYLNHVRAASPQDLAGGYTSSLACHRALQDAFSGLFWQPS
# CK2, sequence (P68400 whole entry): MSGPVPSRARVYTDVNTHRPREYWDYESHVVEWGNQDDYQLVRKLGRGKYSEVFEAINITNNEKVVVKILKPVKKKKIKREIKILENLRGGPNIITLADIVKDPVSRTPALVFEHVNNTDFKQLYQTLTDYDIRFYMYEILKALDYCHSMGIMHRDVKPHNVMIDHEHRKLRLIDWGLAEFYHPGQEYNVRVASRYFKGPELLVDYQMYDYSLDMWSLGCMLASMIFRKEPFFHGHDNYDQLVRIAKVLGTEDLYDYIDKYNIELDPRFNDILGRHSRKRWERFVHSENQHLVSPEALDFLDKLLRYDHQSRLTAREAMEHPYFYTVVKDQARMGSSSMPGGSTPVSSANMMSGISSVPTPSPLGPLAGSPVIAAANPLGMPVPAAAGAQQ
# CK2, sequence (P67870 whole entry partner): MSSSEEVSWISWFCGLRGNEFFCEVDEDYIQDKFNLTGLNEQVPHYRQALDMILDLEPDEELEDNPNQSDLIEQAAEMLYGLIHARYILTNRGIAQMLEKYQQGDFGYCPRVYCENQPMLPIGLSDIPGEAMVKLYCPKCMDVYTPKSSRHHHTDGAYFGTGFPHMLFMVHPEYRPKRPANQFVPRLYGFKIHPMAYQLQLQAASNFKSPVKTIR
# JAK3, sequence (P52333 whole entry): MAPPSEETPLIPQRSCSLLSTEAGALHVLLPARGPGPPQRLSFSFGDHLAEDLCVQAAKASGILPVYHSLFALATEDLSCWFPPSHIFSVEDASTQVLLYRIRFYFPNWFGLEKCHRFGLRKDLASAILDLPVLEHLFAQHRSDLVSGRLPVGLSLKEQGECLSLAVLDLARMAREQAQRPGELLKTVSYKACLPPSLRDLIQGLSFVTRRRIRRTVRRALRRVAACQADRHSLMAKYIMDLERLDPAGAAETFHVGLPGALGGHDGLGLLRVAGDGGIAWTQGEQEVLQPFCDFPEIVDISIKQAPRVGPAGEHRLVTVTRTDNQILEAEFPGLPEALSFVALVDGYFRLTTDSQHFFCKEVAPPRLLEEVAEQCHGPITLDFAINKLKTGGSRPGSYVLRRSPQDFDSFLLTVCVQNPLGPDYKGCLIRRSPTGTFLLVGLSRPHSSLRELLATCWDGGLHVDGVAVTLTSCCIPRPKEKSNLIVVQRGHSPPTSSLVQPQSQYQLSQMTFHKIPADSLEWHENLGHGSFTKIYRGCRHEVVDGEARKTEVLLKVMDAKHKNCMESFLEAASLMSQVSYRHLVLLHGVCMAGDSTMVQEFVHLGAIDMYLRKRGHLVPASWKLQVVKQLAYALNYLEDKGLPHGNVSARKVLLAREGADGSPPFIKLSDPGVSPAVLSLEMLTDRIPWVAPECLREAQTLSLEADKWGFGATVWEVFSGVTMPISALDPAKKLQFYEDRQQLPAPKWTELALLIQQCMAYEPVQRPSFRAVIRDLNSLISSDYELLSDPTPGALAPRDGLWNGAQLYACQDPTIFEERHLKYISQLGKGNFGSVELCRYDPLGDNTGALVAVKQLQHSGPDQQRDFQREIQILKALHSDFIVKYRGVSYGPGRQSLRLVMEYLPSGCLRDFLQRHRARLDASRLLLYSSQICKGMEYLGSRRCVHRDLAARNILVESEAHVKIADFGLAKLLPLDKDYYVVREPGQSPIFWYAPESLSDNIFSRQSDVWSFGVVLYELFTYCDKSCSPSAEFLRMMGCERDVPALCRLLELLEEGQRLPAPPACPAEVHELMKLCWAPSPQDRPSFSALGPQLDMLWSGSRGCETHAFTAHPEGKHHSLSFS
# MAPKAP-K2, sequence (P49137 whole entry): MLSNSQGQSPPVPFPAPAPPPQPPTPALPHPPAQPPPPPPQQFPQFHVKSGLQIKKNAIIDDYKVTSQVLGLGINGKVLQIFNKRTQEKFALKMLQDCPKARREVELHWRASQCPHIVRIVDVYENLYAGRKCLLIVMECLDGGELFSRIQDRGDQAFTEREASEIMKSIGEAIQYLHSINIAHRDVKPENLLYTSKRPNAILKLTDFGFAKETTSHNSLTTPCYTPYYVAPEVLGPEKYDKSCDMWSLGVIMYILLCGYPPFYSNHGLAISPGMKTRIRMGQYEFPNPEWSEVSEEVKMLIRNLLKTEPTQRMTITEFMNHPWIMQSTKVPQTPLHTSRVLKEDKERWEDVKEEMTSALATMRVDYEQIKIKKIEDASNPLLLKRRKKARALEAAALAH
# BrSK1, sequence (Q8TDC3 whole entry): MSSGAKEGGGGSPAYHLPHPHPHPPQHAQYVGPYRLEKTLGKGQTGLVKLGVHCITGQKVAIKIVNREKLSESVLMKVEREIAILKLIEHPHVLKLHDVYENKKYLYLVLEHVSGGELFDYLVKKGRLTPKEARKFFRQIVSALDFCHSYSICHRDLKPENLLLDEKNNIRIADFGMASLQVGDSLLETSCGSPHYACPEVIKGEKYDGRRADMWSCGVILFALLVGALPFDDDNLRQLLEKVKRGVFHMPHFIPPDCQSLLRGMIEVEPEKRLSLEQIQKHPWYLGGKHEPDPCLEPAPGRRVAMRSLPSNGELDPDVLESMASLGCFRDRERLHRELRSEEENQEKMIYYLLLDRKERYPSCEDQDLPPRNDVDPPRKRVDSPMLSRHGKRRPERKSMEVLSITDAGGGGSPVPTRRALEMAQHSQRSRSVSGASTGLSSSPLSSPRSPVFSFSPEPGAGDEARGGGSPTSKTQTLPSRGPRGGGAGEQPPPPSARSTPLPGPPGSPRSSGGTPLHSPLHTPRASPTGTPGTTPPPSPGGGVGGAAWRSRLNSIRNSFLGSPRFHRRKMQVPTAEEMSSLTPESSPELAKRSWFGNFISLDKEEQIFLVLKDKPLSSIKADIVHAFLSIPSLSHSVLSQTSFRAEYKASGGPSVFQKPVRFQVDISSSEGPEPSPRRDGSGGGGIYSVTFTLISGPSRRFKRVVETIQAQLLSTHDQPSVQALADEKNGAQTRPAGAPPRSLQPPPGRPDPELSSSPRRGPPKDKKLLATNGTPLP
# MARK1, sequence (Q9P0L2 whole entry): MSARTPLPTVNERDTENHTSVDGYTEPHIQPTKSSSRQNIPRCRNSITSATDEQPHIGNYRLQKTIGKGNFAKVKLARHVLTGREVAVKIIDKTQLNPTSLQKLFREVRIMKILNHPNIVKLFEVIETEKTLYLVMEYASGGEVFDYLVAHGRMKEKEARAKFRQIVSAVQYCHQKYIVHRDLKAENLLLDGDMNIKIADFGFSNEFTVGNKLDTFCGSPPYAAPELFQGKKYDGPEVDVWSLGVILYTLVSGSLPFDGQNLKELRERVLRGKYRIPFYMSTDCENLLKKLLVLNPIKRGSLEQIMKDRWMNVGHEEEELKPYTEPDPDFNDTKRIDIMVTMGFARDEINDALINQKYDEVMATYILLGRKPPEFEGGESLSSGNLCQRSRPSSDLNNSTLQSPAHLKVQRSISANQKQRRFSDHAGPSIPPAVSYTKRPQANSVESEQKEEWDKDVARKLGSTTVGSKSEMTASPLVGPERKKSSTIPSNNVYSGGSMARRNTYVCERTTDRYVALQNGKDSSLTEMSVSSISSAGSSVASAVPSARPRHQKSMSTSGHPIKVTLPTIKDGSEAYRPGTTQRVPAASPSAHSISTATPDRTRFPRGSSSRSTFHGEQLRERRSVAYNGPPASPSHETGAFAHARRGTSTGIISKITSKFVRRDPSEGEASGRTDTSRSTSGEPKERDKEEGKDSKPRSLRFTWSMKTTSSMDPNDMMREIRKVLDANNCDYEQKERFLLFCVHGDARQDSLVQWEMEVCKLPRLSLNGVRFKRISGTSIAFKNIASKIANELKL
Compound,Avg. POC [2] [POC],Avg. POC [3] [POC],Avg. POC [4] [POC],Avg. POC [5] [POC],Avg. POC [6] [POC],Avg. POC [7] [POC],Avg. POC [8] [POC],Avg. POC [9] [POC],Avg. POC [10] [POC],Avg. POC [12] [POC],Avg. POC [13] [POC],Avg. POC [14] [POC],Avg. POC [15] [POC],Avg. POC [16] [POC],Avg. POC [17] [POC],Avg. POC [18] [POC],Avg. POC [19] [POC],Avg. POC [20] [POC],Avg. POC [21] [POC],Avg. POC [22] [POC],also measured
"Cc1c(-c2cnn(C)c2)nn(-c2ccccc2)c1NC(=O)N[C@H]1CCCc2ccccc21 [Example 2, (S)-1-(1′,4-dimethyl-1-phenyl-1H,1′H-3,4′-bipyrazol-5-yl)-3-(1,2,3,4-tetrahydronaphthalen-1-yl)urea]",132,109.5,112.5,126,113,119,139.5,111,119,117.5,107,115.5,116,105.5,108.5,116,142.5,103.5,123.5,115,IC50 [1]: < 100 nM; Avg. POC [11]: 100.5 POC; Avg. POC [23]: 105 POC; Avg. POC [24]: 137.5 POC; Avg. POC [25]: 103 POC; Avg. POC [26]: 110.5 POC; Avg. POC [27]: 130 POC; Avg. POC [28]: 106.5 POC; Avg. POC [29]: 120.5 POC; Avg. POC [30]: 101 POC; Avg. POC [31]: 122 POC; Avg. POC [32]: 121.5 POC; Avg. POC [33]: 126 POC
"Cc1c(-c2cnn(C)c2)nn(-c2ccccc2)c1NC(=O)NC1CCOc2cc(F)ccc21 (stereo not shown) [Example 12, 1-(1′,4-dimethyl-1-phenyl-1H,1′H-[3,4′-bipyrazol]-5-yl)-3-(7-fluorochroman-4-yl)urea]",127,99.5,118,112,115.5,111.5,147,101,92,109.5,98,100,96.5,93,117,102,112,96,119.5,104.5,IC50 [1]: < 100 nM; Avg. POC [11]: 101 POC; Avg. POC [23]: 111 POC; Avg. POC [24]: 122.5 POC; Avg. POC [25]: 104 POC; Avg. POC [26]: 102 POC; Avg. POC [27]: 123 POC; Avg. POC [28]: 103.5 POC; Avg. POC [29]: 105.5 POC; Avg. POC [30]: 117.5 POC; Avg. POC [31]: 95.5 POC; Avg. POC [32]: 133.5 POC; Avg. POC [33]: 104.5 POC
"Cc1c(-c2ccc(=O)n(C)c2)nn(-c2ccccc2)c1NC(=O)NC1CN(CC(F)(F)F)Cc2ccccc21 (stereo not shown) [Example 26, 1-(4-methyl-3-(1-methyl-6-oxo-1,6-dihydropyridin-3-yl)-1-phenyl-1H-pyrazol-5-yl)-3-(2-(2,2,2-trifluoroethyl)-1,2,3,4-tetrahydroisoquinolin-4-yl)urea]",130,100.5,105,103.5,109.5,105.5,118,113.5,109,121.5,110.5,108.5,108,104,118,103.5,112,104,144.5,110.5,Avg. POC [23]: 116.5 POC; Avg. POC [24]: 120 POC; Avg. POC [25]: 98.5 POC; Avg. POC [26]: 126.5 POC; Avg. POC [27]: 121.5 POC; Avg. POC [28]: 99.5 POC; Avg. POC [29]: 115 POC; Avg. POC [30]: 109 POC; Avg. POC [31]: 111.5 POC; Avg. POC [32]: 121.5 POC; Avg. POC [33]: 106.5 POC
"COCc1ccc2c(c1)C(NC(=O)Nc1c(C)c(-c3cnn(C)c3)nn1-c1ccccc1)COC2 (stereo not shown) [Example 32, 1-(1′,4-dimethyl-1-phenyl-1H,1′H-[3,4′-bipyrazol]-5-yl)-3-(6-(methoxymethyl)isochroman-4-yl)urea]",121,118.5,121.5,111,106.5,114.5,128.5,122.5,112,135.5,97,105.5,100.5,103,117.5,105.5,109.5,102.5,129,106.5,IC50 [1]: < 100 nM; Avg. POC [11]: 107.5 POC; Avg. POC [23]: 116 POC; Avg. POC [24]: 117.5 POC; Avg. POC [25]: 98.5 POC; Avg. POC [26]: 124 POC; Avg. POC [27]: 134.5 POC; Avg. POC [28]: 99.5 POC; Avg. POC [29]: 101.5 POC; Avg. POC [30]: 117 POC; Avg. POC [31]: 80.5 POC; Avg. POC [32]: 97 POC; Avg. POC [33]: 121 POC
